Test results reported in patent US8933039B2 (NPS Pharmaceuticals, Inc., priority 1995, dated 2015).
Non-standard residues stand in square brackets, D forms with d. Residues, ends and D or L forms follow the SMILES beside them. *: point of attachment. Desaminotyrosyl = O=C(CCc1ccc(O)cc1)*; Nva = CCC[C@H](N)C(=O)O; Abu = CC[C@H](N)C(=O)O; βAla = NCCC(=O)O

Legend:
[1] = tested on: CD1 mice; test: Intestinotrophic activity assessment: small bowel weight in mice; format: in vivo; conditions: for % Activity (small bowel inducing activity relative to native rat GLP-2(1-33) = 100%): mice, as Example 4; for % Increase in small bowel weight: CD1 mice, 2.5 μg peptide s.c. b.i.d. in PBS, sacrificed 10 or 14 days, relative to vehicle only
How it was run: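 Female CD1 mice, 6 weeks old (n=3-4/group), given 2.5 μg peptide s.c. b.i.d. in PBS; sacrificed 10 or 14 days later after ≥20 h fast. Small bowel (pylorus to cecum) weighed; percent change versus vehicle mice, also expressed relative to rat GLP-2(1-33) set as 100%.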

[2] = biological target: DPP-IV (Homo sapiens, UniProt P27487); test: Assay for resistance to dipeptidyl peptidase IV (RP-HPLC of cleavage product); conditions: human, isolated human placental DPP-IV (dipeptidyl peptidase IV), pH 7.4, % Cleaved by DPP-IV, as Example 3: human placental DPP-IV, 37° C., PBS pH 7.4
Chain of DPP-IV (P27487 whole entry): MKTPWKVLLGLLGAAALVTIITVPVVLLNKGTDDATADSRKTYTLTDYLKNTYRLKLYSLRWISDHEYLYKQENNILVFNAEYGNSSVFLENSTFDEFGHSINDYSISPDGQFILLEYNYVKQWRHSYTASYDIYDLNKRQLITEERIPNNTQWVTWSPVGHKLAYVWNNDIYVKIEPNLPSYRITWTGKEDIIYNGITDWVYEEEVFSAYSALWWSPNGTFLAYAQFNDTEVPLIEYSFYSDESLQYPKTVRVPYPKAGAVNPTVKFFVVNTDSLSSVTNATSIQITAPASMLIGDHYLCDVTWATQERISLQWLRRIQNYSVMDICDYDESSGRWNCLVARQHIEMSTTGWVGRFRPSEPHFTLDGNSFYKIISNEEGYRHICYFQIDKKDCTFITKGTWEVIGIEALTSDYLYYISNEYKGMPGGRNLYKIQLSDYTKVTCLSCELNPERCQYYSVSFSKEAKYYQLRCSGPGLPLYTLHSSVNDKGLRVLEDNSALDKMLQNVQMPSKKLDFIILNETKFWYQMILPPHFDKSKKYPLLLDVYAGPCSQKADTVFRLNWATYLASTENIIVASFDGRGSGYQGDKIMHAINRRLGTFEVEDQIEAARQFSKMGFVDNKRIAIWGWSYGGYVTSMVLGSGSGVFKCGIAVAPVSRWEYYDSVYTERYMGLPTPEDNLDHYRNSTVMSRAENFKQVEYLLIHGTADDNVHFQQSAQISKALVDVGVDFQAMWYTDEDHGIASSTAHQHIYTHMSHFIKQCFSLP
Method: The mixture was incubated at 37° C. in a circulating water bath for 24 hours. The incubation was quenched by the addition of 50 μl of a solution of diprotin A prepared at a concentration of 4 mg/ml in PBS. Each peptide was tested in duplicate.
Each sample was analyzed by reverse-phase (RP) HPLC as follows: 90 μl of the quenched incubation mixture was injected onto a Rainin Dynamax 300 Å, C18, 5 micron, 4.6×250 millimeter column. The samples were eluted with 0.1% trifluoroacetic acid (TFA) in water modified with 0.1% acetonitrile using a linear gradient and a flow rate of 1 ml per minute. Sample components were detected at 214 nanometers (nm). The extent of cleavage was measured by relative integration of the peak corresponding to the cleavage product compared to that of the remaining undigested parent peptide.

Row | metabolised at 24 h, 0.19 mg/ml [2] | Compound | % Activity (small bowel inducing activity relative to native rat GLP-2(1-33) = 100%) [1] | % Increase in small bowel weight [1]
1 | 60% | CC[C@H](C)[C@H](NC(=O)[C@H](Cc1ccccc1)NC(=O)[C@H](CC(=O)O)NC(=O)[C@H](CCCNC(=N)N)NC(=O)[C@H](C)NC(=O)[C@H](C)NC(=O)[C@H](CC(C)C)NC(=O)[C@H](CC(N)=O)NC(=O)[C@H](CC(=O)O)NC(=O)[C@H](CC(C)C)NC(=O)[C@@H](NC(=O)[C@@H](NC(=O)[C@H](CC(N)=O)NC(=O)[C@H](CCSC)NC(=O)[C@H](CCC(=O)O)NC(=O)[C@H](CC(=O)O)NC(=O)[C@H](CO)NC(=O)[C@H](Cc1ccccc1)NC(=O)[C@H](CO)NC(=O)CNC(=O)[C@H](CC(=O)O)NC(=O)[C@H](C)NC(=O)[C@@H](N)Cc1c[nH]cn1)[C@@H](C)O)[C@@H](C)CC)C(=O)N[C@@H](CC(N)=O)C(=O)N[C@@H](Cc1c[nH]c2ccccc12)C(=O)N[C@@H](CC(C)C)C(=O)N[C@H](C(=O)N[C@@H](CCC(N)=O)C(=O)N[C@H](C(=O)N[C@@H](CCCCN)C(=O)N[C@H](C(=O)N[C@H](C(=O)N[C@@H](CC(=O)O)C(=O)O)[C@@H](C)O)[C@@H](C)CC)[C@@H](C)O)[C@@H](C)CC [hGLP-2(1-33), reference compound] | 100% | –
2 | 49% | CC[C@H](NC(=O)[C@@H](N)Cc1c[nH]cn1)C(=O)N[C@@H](CC(=O)O)C(=O)NCC(=O)N[C@@H](CO)C(=O)N[C@@H](Cc1ccccc1)C(=O)N[C@@H](CO)C(=O)N[C@@H](CC(=O)O)C(=O)N[C@@H](CCC(=O)O)C(=O)N[C@@H](CCSC)C(=O)N[C@@H](CC(N)=O)C(=O)N[C@H](C(=O)N[C@H](C(=O)N[C@@H](CC(C)C)C(=O)N[C@@H](CC(=O)O)C(=O)N[C@@H](CC(N)=O)C(=O)N[C@@H](CC(C)C)C(=O)N[C@@H](C)C(=O)N[C@@H](C)C(=O)N[C@@H](CCCNC(=N)N)C(=O)N[C@@H](CC(=O)O)C(=O)N[C@@H](Cc1ccccc1)C(=O)N[C@H](C(=O)N[C@@H](CC(N)=O)C(=O)N[C@@H](Cc1c[nH]c2ccccc12)C(=O)N[C@@H](CC(C)C)C(=O)N[C@H](C(=O)N[C@@H](CCC(N)=O)C(=O)N[C@H](C(=O)N[C@@H](CCCCN)C(=O)N[C@H](C(=O)N[C@H](C(=O)N[C@@H](CC(=O)O)C(=O)O)[C@@H](C)O)[C@@H](C)CC)[C@@H](C)O)[C@@H](C)CC)[C@@H](C)CC)[C@@H](C)CC)[C@@H](C)O [[aAbu2]hGLP-2(1-33)] (H-H[Abu]DGSFSDEMNTILDNLAARDFINWLIQTKITD-OH) | 84% | –
3 | 77% | H-HADGAFADEMNTILDNLAARDFINWLIQTKITD-OH [[Ala5, Ala7]hGLP-2(1-33)] | 108% | –
4 | 50% | H-HAEGSFSDEMNTILDNLATRDFINWLIQTKITD-OH [[Glu3]ratGLP-2(1-33)] | 65% | 33%
5 | 16% | H-HPDGSFSDEMNTILDNLAARDFINWLIQTKITD-OH [[Pro2]hGLP-2(1-33)] | 50% | –
6 | 59% | H-HADGSFSDEMNTILDNLAARDFINWLIQTRITD-OH [[Arg30]hGLP-2(1-33)] | 103% | –
7 | 54% | H-HADGSFSDEMNTILDNLAARDFINFLIQTKITD-OH [[Phe25]hGLP-2(1-33)] | 114% | –
8 | 0% | H-HGDGSFSDEMNTILDNLAARDFIAWLIQTKITD-OH [[Gly2,Ala24]hGLP-2(1-33)] | 139% | 67%
9 | 0% | H-HDDGSFSDEMNTILDNLAARDFINWLIQTKITD-OH [[Asp2]hGLP-2(1-33)] | 83% | –
10 | 55% | H-HADGSFSDEMNTILDNLAARDFINWLIQTKITE-OH [[Glu33]hGLP-2(1-33)] | 121% | –
11 | 0% | H-HIDGSFSDEMNTILDNLAARDFINWLIQTKITD-OH [[Ile2]hGLP-2(1-33)] | 90% | –
12 | 15% | CC[C@H](C)[C@H](NC(=O)[C@H](Cc1ccccc1)NC(=O)[C@H](CC(=O)O)NC(=O)[C@H](CCCNC(=N)N)NC(=O)[C@H](C)NC(=O)[C@H](C)NC(=O)[C@H](CC(C)C)NC(=O)[C@H](CC(N)=O)NC(=O)[C@H](CC(=O)O)NC(=O)[C@H](CC(C)C)NC(=O)[C@@H](NC(=O)[C@@H](NC(=O)[C@H](CC(N)=O)NC(=O)[C@H](CCSC)NC(=O)[C@H](CCC(=O)O)NC(=O)[C@H](CC(=O)O)NC(=O)[C@H](CO)NC(=O)[C@H](Cc1ccccc1)NC(=O)[C@H](CO)NC(=O)CNC(=O)[C@H](CC(=O)O)NC(=O)[C@H](C)NC(=O)CCc1ccc(O)cc1)[C@@H](C)O)[C@@H](C)CC)C(=O)N[C@@H](CC(N)=O)C(=O)N[C@@H](Cc1c[nH]c2ccccc12)C(=O)N[C@@H](CC(C)C)C(=O)N[C@H](C(=O)N[C@@H](CCC(N)=O)C(=O)N[C@H](C(=O)N[C@@H](CCCCN)C(=O)N[C@H](C(=O)N[C@H](C(=O)N[C@@H](CC(=O)O)C(=O)O)[C@@H](C)O)[C@@H](C)CC)[C@@H](C)O)[C@@H](C)CC [[desNH2Tyr1]hGLP-2(1-33)] (Desaminotyrosyl-ADGSFSDEMNTILDNLAARDFINWLIQTKITD-OH) | 125% | –
13 | 0% | CC[C@H](C)[C@H](NC(=O)[C@H](Cc1ccccc1)NC(=O)[C@H](CC(=O)O)NC(=O)[C@H](CCCNC(=N)N)NC(=O)[C@H](C)NC(=O)[C@H](C)NC(=O)[C@H](CC(C)C)NC(=O)[C@H](CC(N)=O)NC(=O)[C@H](CC(=O)O)NC(=O)[C@H](CC(C)C)NC(=O)[C@@H](NC(=O)[C@@H](NC(=O)[C@H](CC(N)=O)NC(=O)[C@H](CCSC)NC(=O)[C@H](CCC(=O)O)NC(=O)[C@H](CC(=O)O)NC(=O)[C@H](CO)NC(=O)[C@H](Cc1ccccc1)NC(=O)[C@H](CO)NC(=O)CNC(=O)[C@H](CC(=O)O)NC(=O)CCNC(=O)[C@@H](N)Cc1c[nH]cn1)[C@@H](C)O)[C@@H](C)CC)C(=O)N[C@@H](CC(N)=O)C(=O)N[C@@H](Cc1c[nH]c2ccccc12)C(=O)N[C@@H](CC(C)C)C(=O)N[C@H](C(=O)N[C@@H](CCC(N)=O)C(=O)N[C@H](C(=O)N[C@@H](CCCCN)C(=O)N[C@H](C(=O)N[C@H](C(=O)N[C@@H](CC(=O)O)C(=O)O)[C@@H](C)O)[C@@H](C)CC)[C@@H](C)O)[C@@H](C)CC [[bAla2]hGLP-2(1-33)] (H-H[βAla]DGSFSDEMNTILDNLAARDFINWLIQTKITD-OH) | 118% | –
14 | 0% | H-HNDGSFSDEMNTILDNLAARDFINWLIQTKITD-OH [[Asn2]hGLP-2(1-33)] | 67% | –
15 | 0% | H-HGDASFSDEMNTILDNLAARDFINWLIQTKITD-OH [[Gly2,Ala4]hGLP-2(1-33)] | 100% | 36%
16 | 0% | H-HTDGSFSDEMNTILDNLAARDFINWLIQTKITD-OH [[Thr2]hGLP-2(1-33)] | 117% | –
17 | 0% | CCC[C@H](NC(=O)[C@@H](N)Cc1c[nH]cn1)C(=O)N[C@@H](CC(=O)O)C(=O)NCC(=O)N[C@@H](CO)C(=O)N[C@@H](Cc1ccccc1)C(=O)N[C@@H](CO)C(=O)N[C@@H](CC(=O)O)C(=O)N[C@@H](CCC(=O)O)C(=O)N[C@@H](CCSC)C(=O)N[C@@H](CC(N)=O)C(=O)N[C@H](C(=O)N[C@H](C(=O)N[C@@H](CC(C)C)C(=O)N[C@@H](CC(=O)O)C(=O)N[C@@H](CC(N)=O)C(=O)N[C@@H](CC(C)C)C(=O)N[C@@H](C)C(=O)N[C@@H](C)C(=O)N[C@@H](CCCNC(=N)N)C(=O)N[C@@H](CC(=O)O)C(=O)N[C@@H](Cc1ccccc1)C(=O)N[C@H](C(=O)N[C@@H](CC(N)=O)C(=O)N[C@@H](Cc1c[nH]c2ccccc12)C(=O)N[C@@H](CC(C)C)C(=O)N[C@H](C(=O)N[C@@H](CCC(N)=O)C(=O)N[C@H](C(=O)N[C@@H](CCCCN)C(=O)N[C@H](C(=O)N[C@H](C(=O)N[C@@H](CC(=O)O)C(=O)O)[C@@H](C)O)[C@@H](C)CC)[C@@H](C)O)[C@@H](C)CC)[C@@H](C)CC)[C@@H](C)CC)[C@@H](C)O [[Nval2]hGLP-2(1-33)] (H-H[Nva]DGSFSDEMNTILDNLAARDFINWLIQTKITD-OH) | 111% | –
18 | 0% | H-DADGSFSDEMNTILDNLAARDFINWLIQTKITD-OH [[Asp1]hGLP-2(1-33)] | 60% | –
